Measured values taken from publication PMC12563520, “Asiatic Acid from Centella asiatica as a Potent EGFR Tyrosine Kinase Inhibitor with Anticancer Activity in NSCLC Cells Harboring Wild-Type and T790M-Mutated EGFR” (Biomolecules, 2025).
Like-named read-outs stand apart in the source and are kept apart here. Each block holds one compound with its values, some of them ahead of it.

Key:
A549 cells [1] = test: Annexin V/PI apoptosis assay by flow cytometry, A549; format: cell-based, human; details: 24 h
Method: (§1) Cells were plated in a 6-well plate at a density of 200,000 cells/well and allowed to adhere overnight at 37 °C. The following day, cells were treated with increasing concentrations of asiatic acid for 24 h. […] After treatment, cells were harvested by trypsinization and centrifugation. The cell pellets were stained with FITC-conjugated Annexin V (640945; BioLegend, San Diego, CA, USA) and incubated for 30 min at room temperature in the dark. Propidium iodide (PI; P3566; Invitrogen^TM, Waltham, MA, USA) was then added, and apoptotic populations were analyzed using a BD FACSCalibur flow cytometer (BD Biosciences, Heidelberg, Germany).

wild-type EGFR = biological target: T1, wild-type EGFR (Homo sapiens, UniProt P00533); test: ADP-Glo kinase assay, wild-type EGFR; format: biochemical; details: mean ± SEM (n = 3), read-out: IC50 kinase inhibition, Wild-Type EGFR
T1 construct: purchased Sigma-Aldrich SRP0239

L858R/T790M EGFR = biological target: T2, L858R/T790M EGFR (Homo sapiens, UniProt P00533, L858R/T790M); test: ADP-Glo kinase assay, double-mutant EGFR; format: biochemical; details: mean ± SEM (n = 3), read-out: IC50 kinase inhibition, L858R/T790M EGFR
T2 construct: purchased Sigma-Aldrich SRP0242
Method: The EGFR inhibitory activity of the tested compound was measured using the ADP-Glo^TM assay (Promega, WI, USA) according to a previous study [28]. […] For the positive control, 2 μL of DMSO was added in place of the tested compound. For the negative control, the EGFR enzyme was omitted and replaced with 5 μL of 1X kinase buffer. The plate was protected from light and incubated at room temperature for 1 h, followed by the addition of 5 μL ADP-Glo^TM reagent and a further 40-min incubation. To convert ADP to ATP, 10 μL of kinase detection reagent was added, followed by a 30-min incubation under the same conditions. ATP levels were then measured using a Varioskan LUX multimode microplate reader (Thermo Fisher Scientific, Waltham, MA, USA), and percent inhibition was calculated using Equation (1).(1) Inhibition activity %=positive − negative−sample −negative/positive−negative ×100
The IC50 of each compound was calculated using GraphPad Prism software (version 8.0.2, GraphPad Software, Inc., Boston, MA, USA).

[2] = biological target: fibroblast growth factor receptor (FGFR); test: FGFR kinase inhibition (selectivity); format: biochemical
A549 cells [3] = test: MTT cell viability assay, A549; format: cell-based; details: Homo sapiens, 72 h, mean ± SEM (n = 3)
Method: (§2) Cells were seeded in a 96-well plate at 1,500 cells/well and incubated at 37 °C for 24 h. After incubation, the culture medium was replaced with fresh medium containing various concentrations of asiatic acid. Cells treated with 0.8% (v/v) DMSO served as the vehicle control. After 72 h, cells were incubated with 100 μL of MTT solution (0.5 mg/mL in PBS) for 4 h at 37 °C. The solution was then removed, 100 μL of DMSO was added, and the plate was protected from light with gentle agitation for 15 min. Absorbance was recorded at 540 nm using a Sunrise microplate reader (Tecan Group Ltd., Männedorf, Switzerland).

H1975 cells [4] = test: MTT cell viability assay, H1975; format: cell-based; details: Homo sapiens, NCI-H1975
Method: as §2

[5] = test system: BEAS-2B normal lung epithelial cells; test: MTT cell viability assay, BEAS-2B; format: cell-based, human
Method: as §2

H1975 cells [6] = test: Annexin V/PI apoptosis assay by flow cytometry, H1975; format: cell-based, human; details: 24 h
Method: as §1, with “The cell pellets were stained with FITC-conjugated Annexin V (640945; BioLegend, San Diego, CA, USA) and incubated for 30 min at room temperature in the dark.” left out

[7] = test system: cleaved PARP (Asp214) in A549 cells; test: Western blot of cleaved PARP, A549; format: cell-based, human; details: for cleaved PARP expression (fold), Mean: 24 h, vs 0 μM
Method: (§3) Cells were plated at 200,000 cells/well in a 6-well plate and allowed to adhere for 24 h. They were then treated with the tested compound at varying concentrations for 24 h. For A549 cells, treatment was performed in serum-free medium for 24 h, followed by stimulation with 100 ng/mL human EGF for 10 min prior to harvesting. Cells were harvested by trypsinization, lysed in RIPA buffer [50 mM Tris-HCl (pH 7.4), 150 mM NaCl, 1% NP-40, 1% Na-deoxycholate, and 0.1% SDS] with protease and phosphatase inhibitors, and incubated on ice for 30 min. Lysates were centrifuged, and protein concentration was determined using the Bradford assay. Equal amounts (30 μg) were separated by 10% SDS-PAGE and transferred to a […] membrane (Immobilon®-P, Merck Millipore, Burlington, MA, USA). The membrane was blocked with 5% skim milk in 1X TBST and incubated overnight at 4 °C with primary antibodies (Table S2) diluted 1:1000 in 1% skim milk-TBST or 1% BSA-TBST. After washing, membranes were incubated at room temperature for 1 h with secondary antibodies—goat anti-Rabbit IgG or goat anti-Mouse IgG (Invitrogen, Waltham, MA, USA)—diluted 1:2000. Protein signals were detected using Luminata^TM Crescendo Western HRP Substrate (Merck Millipore) and imaged with an ImageQuant 800 system (GE Healthcare Bio-Sciences, Uppsala, Sweden). The auto exposure mode was selected to automatically adjust the exposure time to prevent image saturation. The detected signal was quantified using Image Studio Lite (version 5.2, LICORbio^TM, Lincoln, NE, USA).

[8] = test system: cleaved PARP (Asp214) in H1975 cells; test: Western blot of cleaved PARP, H1975; format: cell-based, human; details: for cleaved PARP expression (fold), Mean: 24 h, vs 0 μM
Method: as §3

[9] = test system: p-ERK (Thr202/Tyr204) in A549 cells; test: Western blot of p-ERK, A549; format: cell-based, human; details: for p-ERK expression (fold), Mean: 24 h, vs DMSO
Method: as §3

[10] = test system: p-Akt (Ser473) in A549 cells; test: Western blot of p-Akt, A549; format: cell-based, human; details: for p-Akt expression (fold), Mean: 24 h, vs DMSO
Method: as §3

[11] = test system: p-ERK (Thr202/Tyr204) in H1975 cells; test: Western blot of p-ERK, H1975; format: cell-based, human; details: for p-ERK expression (fold), Mean: 24 h, vs DMSO
Method: as §3

[12] = test system: p-Akt (Ser473) in H1975 cells; test: Western blot of p-Akt, H1975; format: cell-based, human; details: for p-Akt expression (fold), Mean: 24 h, vs DMSO
Method: as §3

[13] = biological target: T3, p-EGFR (Tyr1068) in A549 cells (Homo sapiens, UniProt P00533); test: Western blot of p-EGFR, EGF-stimulated A549; format: cell-based; details: for p-EGFR expression (fold), Mean: A549, EGF-stimulated (+), vs DMSO (+)
T3 construct: endogenous in cells; host or cells: A549
Method: as §3

[14] = biological target: T4, p-EGFR (Tyr1068) in H1975 cells (Homo sapiens, UniProt P00533, L858R/T790M); test: Western blot of p-EGFR, H1975; format: cell-based; details: H1975, 6.25–50 μM, dose-dependent
T4 construct: endogenous in cells; host or cells: H1975
Method: as §3, with “After washing, membranes were incubated at room temperature for 1 h with secondary antibodies—goat anti-Rabbit IgG or goat anti-Mouse IgG (Invitrogen, Waltham, MA, USA)—diluted 1:2000.” left out, “The auto exposure mode was selected to automatically adjust the exposure time to prevent image saturation.” left out

[15] = biological target: T5, EGFR protein in A549 cells (Homo sapiens, UniProt P00533); test: Cellular thermal shift assay (CETSA); format: binding; details: A549 cell lysates, 100 μM, 1 hour, heated at 40–60 °C, n = 2
T5 construct: endogenous in cells; host or cells: A549
Method: Figure S9. The cellular thermal shift assay. The stability of EGFR protein in A549 cells was assessed by treating cell lysates with either 0.2% DMSO or 100 μM asiatic acid for 1 hour. Following treatment, samples were heated at 40–60 °C for 3 minutes, rapidly cooled on ice for 10 minutes, and then centrifuged at 12,000 rpm at 4 °C for 30 minutes.
The supernatants were analyzed by Western blot, and relative band intensities were plotted against the corresponding heating temperatures. Data are expressed as mean ± […]
(1 picture or pasted object on this page, not shown here)

[16] = A549, 100 μM, listed as AS-PN005

SMILES: C#Cc1cccc(Nc2ncnc3cc(OCCOC)c(OCCOC)cc23)c1 [Erlotinib, reference compound]
increase of apoptosis compared to the untreated group (A549 cells [1]; A549, 10 μM): approximately twofold

IC50 (wild-type EGFR): 0.035 ± 0.002 nM | IC50 (L858R/T790M EGFR): 0.000348 ± 5.5e-05 µM | IC50 ([2]; Figure S8): 0.000471 µM | selectivity for EGFR over FGFR ([2]; ratio of kinase IC50 values): approximately 13.5 fold | IC50 (A549 cells [3]): 64.5 ± 2.49 µM | IC50 (H1975 cells [4]; H1975, MTT, 72 h, mean ± SEM (n = 3), read-out: IC50 cell viability): 36.6 ± 0.86 µM | EGF-induced EGFR phosphorylation, in words ([13]; A549, 12.5–100 μM, concentration-dependent): significantly inhibited | p-EGFR expression (fold), Mean ([13]; 12.5 μM): 0.75 fold | p-EGFR expression (fold), Mean ([13]; 25 μM): 0.40 fold | p-EGFR expression (fold), Mean ([13]; 50 μM): 0.36 fold | p-EGFR expression (fold), Mean ([13]; 100 μM): 0.21 fold | p-EGFR levels, in words [14]: significantly reduced | thermal stability of EGFR protein (CETSA) [15]: markedly enhanced the stability
SMILES: C[C@H]1[C@H](C)CC[C@]2(C(=O)O)CC[C@]3(C)C(=CC[C@@H]4[C@@]5(C)C[C@@H](O)[C@H](O)[C@@](C)(CO)[C@@H]5CC[C@]43C)[C@H]12 [Asiatic acid, asiatic acid]
viability at 100 µM (H1975 cells [4]; H1975, concentrations of ≥100 μM, read-out: cell viability): < 40% | IC50 ([5]; Homo sapiens, BEAS-2B, 72 h, mean ± SEM (n = 3)): 184 ± 5.38 µM | cytotoxicity in BEAS-2B cells ([5]; concentrations ≤100 μM (12.5–100 μM)): no notable cytotoxicity | increase of apoptotic cell population relative to DMSO-treated group (A549 cells [1]; A549, 100 μM): approximately threefold | increase of apoptotic cell population relative to DMSO-treated group (H1975 cells [6]; H1975, 50 μM): about twofold | cleaved PARP expression (fold), Mean ([7]; A549, 25 μM): 3.12 fold | cleaved PARP expression (fold), Mean ([7]; A549, 50 μM): 4.42 fold | cleaved PARP expression (fold), Mean ([7]; A549, 100 μM): 6.86 fold | cleaved PARP (Asp214) levels, in words ([7]; A549, 25–100 μM, p < 0.0001): significant, concentration-dependent increase | cleaved PARP expression (fold), Mean ([8]; H1975, 12.5 μM): 7.26 fold | cleaved PARP expression (fold), Mean ([8]; H1975, 25 μM): 9.99 fold | cleaved PARP expression (fold), Mean ([8]; H1975, 50 μM): 14.15 fold | cleaved PARP expression, in words ([8]; H1975, 12.5–50 μM, p < 0.0001): significantly elevated | p-ERK expression (fold), Mean ([9]; A549, 12.5 μM): 0.427 fold | p-ERK expression (fold), Mean ([9]; A549, 25 μM): 0.402 fold | p-ERK expression (fold), Mean ([9]; A549, 50 μM): 0.294 fold | p-ERK expression (fold), Mean ([9]; A549, 100 μM): reducing these proteins more than erlotinib | p-ERK expression (fold), Mean [9, 16]: 0.103 fold | p-ERK levels compared to the vehicle control, in words ([9]; A549, 12.5–100 μM): significantly decreased | p-Akt expression (fold), Mean ([10]; A549, 12.5 μM): 0.454 fold | p-Akt expression (fold), Mean ([10]; A549, 25 μM): 0.393 fold | p-Akt expression (fold), Mean ([10]; A549, 50 μM): 0.336 fold | p-Akt expression (fold), Mean ([10]; A549, 100 μM): reducing these proteins more than erlotinib | p-Akt expression (fold), Mean [10, 16]: 0.147 fold | p-Akt levels compared to the vehicle control, in words ([10]; A549, 12.5–100 μM): significantly decreased | p-ERK expression (fold), Mean ([11]; H1975, 6.25 μM): 0.755 fold | p-ERK expression (fold), Mean ([11]; H1975, 12.5 μM): 0.636 fold | p-ERK expression (fold), Mean ([11]; H1975, 25 μM): 0.566 fold | p-ERK expression (fold), Mean ([11]; H1975, 50 μM): 0.458 fold | p-ERK level, in words ([11]; H1975, 6.25–50 μM, p < 0.0001): significant, dose-dependent decrease | p-Akt expression (fold), Mean ([12]; H1975, 6.25 μM): 0.747 fold | p-Akt expression (fold), Mean ([12]; H1975, 12.5 μM): 0.696 fold | p-Akt expression (fold), Mean ([12]; H1975, 25 μM): 0.605 fold | p-Akt expression (fold), Mean ([12]; H1975, 50 μM): 0.423 fold | p-Akt level, in words ([12]; H1975, 6.25–50 μM, p < 0.0001): significant, dose-dependent decrease

SMILES: C=CC(=O)Nc1cc(Nc2nccc(-c3cn(C)c4ccccc34)n2)c(OC)cc1N(C)CCN(C)C [Osimertinib]
viability at 3.125 µM (H1975 cells [4]; H1975, 3.125 μM, n = 3): 61.5% | viability at 6.25 µM (H1975 cells [4]; H1975, 6.25 μM, n = 3): 44.8% | viability at 12.5 µM (H1975 cells [4]; H1975, 12.5 μM, n = 3): 23.8% | viability at 25 µM (H1975 cells [4]; H1975, 25 μM, n = 3): 12.1% | viability at 50 µM (H1975 cells [4]; H1975, 50 μM, n = 3): 7.89% | viability at 100 µM (H1975 cells [4]; H1975, 100 μM, n = 3, read-out: Cell viability (%) Mean): 0.43% | IC50 (H1975 cells [4]; Table S1, n = 3, read-out: IC50 (μM) Mean, H1975 cell viability): 4.14 µM | increase of apoptosis compared to the untreated group (H1975 cells [6]; H1975, 5 μM): threefold
